Patent US7279161B2, “Factor IX/factor IXa activating antibodies and antibody derivatives” (Baxter Aktiengesellschaft, priority 1999, dated 2007)
Entries after “also recorded” stand apart in the source; their conditions may differ.

Molecular target: T1, factor IXa (Bos taurus, UniProt P00741)
T1 construct: purchased Chromogenix COATEST VIII:C/4
Assay: Chromogenic FVIII assay (COATEST VIII:C/4) with the kit's FIXa/FX
Assay type: biochemical, bovine
Conditions: bovine FIXa and FX only; A1/3 24 μM
Experimental: In order to assay the FVIII-like activity of anti-FIXa antibodies secreted by hybridoma cells, the commercially available test-kit COATEST VIII:C/4® (Chromogenix) was employed. The assay was done essentially as described by the manufacturer with the following modifications:
To allow high throughput screening, the assay was downscaled to microtiter plate format. Briefly, 25 μl aliquots of hybridoma supernatants were transferred to microtiter plate (Costar, #3598) wells and warmed to 37° C. Chromogenic substrate (S-2222), synthetic thrombin inhibitor (I-2581), factor (F) IXa and FX were reconstituted in sterile water and FIXa/FX was mixed with phospholipids according to the supplier's protocol. Per reaction, 50 μl of the phospholipid/FIXa/FX solution were combined with 25 μl CaCl2 (25 mM) and 50 μl of the substrate/inhibitor cocktail. To start the reaction, 125 μl of the premix were added to the hybridoma supernatant in the microtiter plates and incubated at 37° C. Absorbency at 405 nm and 490 nm of the samples was read at various times (30 min to 12 h) against a reagent blank (MLW, cell culture medium instead of hybridoma supernatant) in a Labsystems iEMS Reader MF™ microtiter plate reader. FVIII-like activity of the samples was calculated by comparing the absorbency of the samples against the absorbency of a diluted FVIII reference standard (IMMUNO AG #5T4AR00) using GENESIS™ software.
Several anti-FIX/FIXa antibody producing hybridoma clones were subcloned up to four times and the resulting monoclonal hybridoma cell line used to produce monoclonal antibody containing supernatant. IgG isotype antibodies derived from these supernatants were purified over affinity columns and dialyzed against TBS (see above). IgM antibodies were used as unpurified supernatant fractions. […] Absorbance at 405 nm and 490 nm of the samples was read at various times (5 min to 6 h) against a reagent blank (cell culture medium instead of hybridoma supernatant) in a Labsystems iEMS Reader MF™ microtiter plate reader using GENESIS™ software. […]

T1 sequence (P00741 47-192 limits assumed): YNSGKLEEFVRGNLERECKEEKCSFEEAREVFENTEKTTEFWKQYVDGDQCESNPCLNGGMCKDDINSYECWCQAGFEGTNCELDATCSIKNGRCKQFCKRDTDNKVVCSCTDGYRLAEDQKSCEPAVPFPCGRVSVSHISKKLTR
T1 sequence (P00741 228-462 limits assumed): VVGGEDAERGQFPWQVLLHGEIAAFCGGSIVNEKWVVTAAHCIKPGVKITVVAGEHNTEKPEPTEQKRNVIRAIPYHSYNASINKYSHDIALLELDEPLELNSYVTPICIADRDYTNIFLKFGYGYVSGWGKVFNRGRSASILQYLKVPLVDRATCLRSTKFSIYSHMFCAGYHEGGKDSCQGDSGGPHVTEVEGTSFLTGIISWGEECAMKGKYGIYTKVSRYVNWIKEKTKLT

Sequence: RRREGGGYYVNWYFDRRR [A1/3]
- chromogenic FVIII-like activity (FXa generation) without human FIXa: does not react with bovine FIXa and FX; also recorded: does not give rise to any FXa generation
